Consider seven molecules from patent US10195226B2, “Medicinal carbohydrates for treatment of respiratory conditions” (Australian Biomedical Company Pty Ltd., priority 2009, dated 2019).

The test system of data set [1] is Balb-C mice. As to the kind of experiment: Tolerance study on Balb-C mice. Format: in vivo. From the text:
(§1) Compounds of Formula (1) and/or (2) have been tested for safety by the applicants. For example, Compounds (1) and (2) were used in a tolerance and subchronic toxicity study on Balb-C mice (AEC Approval Code: BAM/B/2005/16).

For a further data set, the system named is male Hartley guinea pigs. Description: Guinea pig cough model (neuraminidase aerosol, citric acid challenge). The data set is classed as in vivo. As to conditions: for Restoration of respiratory tract damages caused by neuraminidase: guinea pig cough model, oral dose of 500 mg/kg/day×3 days, result in words, 500 mg/kg/day. As for the experimental part: A guinea pig cough model was also established by the applicants. Compounds (1) and (2) were tested in this model. […] These in vivo results are in line with the in vitro data. Thus, both the efficacy and safety data support compounds of Formula (1) and/or (2) and particularly compounds (1) and (2) may be useful for medicinal applications.
Male guinea pigs were housed in pens and have access to water and food ad libitum. This study was approved by Bio21 Institute Animal Ethics Committee.
Twenty four Conscious male Hartley guinea pigs (500˜550 g) were divided into A, B, C three groups (8 animals for each group), and pretreated with either 5 units/ml solution of neuraminidase (Sigma N2133, lyophilized powder, Type X, 150˜400 units/mg protein) in water (group B and C) or saline alone (Group A) via an aerosol for 5 minutes on day one. Then, on day one, two and three, the guinea pigs were either orally administered with 500 mg/kg of compound (1) (Group C), or water alone (Group A and B). On day four, all the animals were challenged with 0.5M citric acid solution (nebulised, 10 minutes exposure). The cough frequency, times to the 1st, 2nd and third cough, and times to the 1st nose rubs were then recorded over a period of 15 minutes.

In data set [2] the test system is Balb-C mice. Description: Subchronic toxicity study on Balb-C mice. Format: in vivo.
From the text: as §1

The conditions of data set [3]: mammals, reference [8]; cited from earlier work.
Data set [4] relates to Small Airway Epithelial Cells (SAEC). To be noted: SAEC pretreated with neuraminidase, 24 h, control (treated with neuraminidase) = 100%, mean ± SEM, n = 3.
In data set [5] the test system is Normal Human Bronchial/Tracheal Epithelial Cells (NHBE). As to conditions: NHBE pretreated with neuraminidase, 24 h, control (treated with neuraminidase) = 100%, mean ± SEM, n = 3.
In another data set the test system is mucocilliary transport. As to conditions: reference [6]; result in words; cited from earlier work.
In a further data set the test system is rabbits. As to conditions: pre-treatment with repeated administrations (inhalations), reference [7]; cited from earlier work.
Where [6] appears, read: guinea pigs, neuraminidase aerosol day one, 500 mg/kg oral on days one to three, 0.5M citric acid challenge day four.

Where two headings read alike, the source gives them in different places.

Consider `CC(=O)N[C@H]1[C@H]([C@H](O)[C@H](O)CO)OC(O)(C(=O)[O-])C[C@@H]1O.[Na+]` (stereo partly shown) [Compound (2), N-acetylneuraminic acid sodium salt], for which the Tolerance result in the data set with Balb-C mice [1] (2 g/Kg intraperitoneal dose) and in the data set with Balb-C mice [1] (5 g/Kg oral dose) was “well tolerated” throughout. The “Restoration of respiratory tract damages caused by neuraminidase” value (from here on “Restoration”) with male Hartley guinea pigs (sodium salt) is reported as “could restore the respiratory tract damages caused by neuraminidase”.

For `CC(=O)N[C@@H]1C(O)O[C@H](CO)[C@@H](O)[C@@H]1O` (stereo partly drawn) [Compound (1), N-acetyl-D-mannosamine], in the data set with Balb-C mice [2] (0.5 g/Kg/day×30 days intraperitoneal dose), the Subchronic toxicity entry is recorded as “non-toxic”. For the same molecule, the Subchronic toxicity result in the data set with Balb-C mice [2] (1 g/Kg/day×30 days oral dose) was “non-toxic”. Further, in the data set with Balb-C mice [1] (2 g/Kg intraperitoneal dose), the Tolerance result is “well tolerated”. For the same molecule, the Tolerance entry with Balb-C mice [1] (5 g/Kg oral dose) is “well tolerated”. The “Restoration” value in the data set on male Hartley guinea pigs is reported as “could restore the respiratory tract damages caused by neuraminidase”. Further, in the data set on male Hartley guinea pigs (listed as compound (1)), the “Restoration” value was “helped to restore the damages caused by neuraminidase”. For the same molecule, in the data set with male Hartley guinea pigs (setting [6]), the “Cough frequency (in 15 minutes)” value was found to be 16 ± 2.2, the “Time (second) to the 1st nose rubs” value amounted to 49 ± 6.5 s, the “Time (seconds) to the 1st cough” value was determined as 85 ± 15 s and the “Time (seconds) to the 2nd cough” value turned out to be 137 ± 31 s. In addition, the “Time (seconds) to the 3rd cough” value with male Hartley guinea pigs (setting [6]) amounted to 220 ± 10 s. For the same molecule, in data set [3], the “Metabolism after oral administration” value is reported as “rapidly metabolized into glucose”.

For the molecule `CC(=O)NC1C(OC(C)=O)OC(COC(C)=O)C(OC(C)=O)C1OC(C)=O` (stereo not shown) [Compound (7)], the Cell viability in data set [4] (compound 0.003 μg/ml) is recorded as 102% ± 0.62; in data set [4] (compound 0.012 μg/ml), 105% ± 1.83; in data set [4] (compound 0.05 μg/ml), 128% ± 1.98; in data set [4] (compound 0.19 μg/ml), 105% ± 2.01; in data set [4] (compound 0.77 μg/ml) it was 112% ± 1.29; in data set [4] (compound 3.1 μg/ml), 103% ± 1.14. Further, the Cell viability in data set [4] (compound 12.5 μg/ml) is reported as 134% ± 0.81; in data set [4] (compound 50 μg/ml), 73% ± 2.18; in data set [5] (compound 0.003 μg/ml), 85% ± 2.71; in data set [5] (compound 0.012 μg/ml), 103% ± 4.70; in data set [5] (compound 0.05 μg/ml), 104% ± 5.85; in data set [5] (compound 0.19 μg/ml), 100% ± 0.66. Further, the Cell viability in data set [5] (compound 0.77 μg/ml) was 99% ± 1.93; in data set [5] (compound 3.1 μg/ml) it was 98% ± 5.65; in data set [5] (compound 12.5 μg/ml) it was 117% ± 4.12; in data set [5] (compound 50 μg/ml), 54% ± 0.98.

Regarding `OC[C@H]1O[C@@H](O[C@H]2[C@H](O)[C@@H](O)C(O)O[C@@H]2CO)[C@H](O)[C@@H](O)[C@H]1O` (stereo partly shown) [lactose, reference compound], the “Protection against the impairment of the mucocilliary transport” value in the data set with mucocilliary transport is listed as “not”.

`CC(=O)NC1C(O)OC(COC(C)=O)C(OC(C)=O)C1OC(C)=O` (stereo not shown) [Compound (8)]: the Cell viability in data set [4] (compound 0.003 μg/ml) was 125% ± 8.51; in data set [4] (compound 0.05 μg/ml), 109% ± 1.16; in data set [4] (compound 0.19 μg/ml), 115% ± 3.52; in data set [4] (compound 0.77 μg/ml) it was 103% ± 3.21; in data set [4] (compound 3.1 μg/ml) it was 109% ± 2.79; in data set [4] (compound 12.5 μg/ml), 104% ± 1.95. Moreover, the Cell viability in data set [4] (compound 50 μg/ml) is 91% ± 3.36; in data set [5] (compound 0.003 μg/ml), 129% ± 1.70; in data set [5] (compound 0.012 μg/ml), 118% ± 3.19; in data set [5] (compound 0.05 μg/ml), 93% ± 1.38; in data set [5] (compound 0.19 μg/ml), 96% ± 1.21; in data set [5] (compound 0.77 μg/ml), 133% ± 2.09. For the same molecule, the figures for the Cell viability in data set [5] (compound 3.1 μg/ml), in data set [5] (compound 12.5 μg/ml) and in data set [5] (compound 50 μg/ml) were 111% ± 2.44, 81% ± 0.60 and 42% ± 1.55, respectively.

As to `CC(=O)N[C@H]1[C@H]([C@H](O)[C@H](O)CO)OC(O)(C(=O)O)C[C@@H]1O` (stereo partly shown) [N-acetylneuraminic acid], the “Prevention of inflammatory changes caused by long term exposure of SO2” value with rabbits was “remarkably prevented the inflammatory changes”. Also, in the data set with mucocilliary transport, the “Protection against the impairment of the mucocilliary transport” value is “dose-dependently protected”.

Regarding `CC(=O)NC1C(O)OC(CO)C(O)C1O` (stereo not shown) [Compound (9)], the Cell viability in data set [4] (compound 0.19 μg/ml) is recorded as 121% ± 2.42; in data set [4] (compound 0.77 μg/ml), 120% ± 3.14; in data set [4] (compound 3.1 μg/ml), 115% ± 3.17; in data set [4] (compound 12.5 μg/ml), 119% ± 3.04; in data set [4] (compound 50 μg/ml) it was 122% ± 3.21; in data set [4] (high concentration 78.1 μg/ml), 100% ± 2.92. Further, the Cell viability in data set [4] (high concentration 312.5 μg/ml) is reported as 90% ± 3.28; in data set [4] (high concentration 1.25 mg/ml), 96% ± 3.16; in data set [4] (high concentration 5 mg/ml), 83% ± 2.85; in data set [5] (compound 0.19 μg/ml), 107% ± 3.41; in data set [5] (compound 0.77 μg/ml) it was 107% ± 1.26; in data set [5] (compound 3.1 μg/ml) it was 108% ± 3.24. The Cell viability is reported as 106% ± 3.49 in data set [5] (compound 12.5 μg/ml); 106% ± 2.52 in data set [5] (compound 50 μg/ml); 125% ± 3.23 in data set [5] (high concentration 78.1 μg/ml); 95% ± 2.85 in data set [5] (high concentration 312.5 μg/ml); 96% ± 2.42 in data set [5] (high concentration 1.25 mg/ml); 76% ± 2.71 in data set [5] (high concentration 5 mg/ml).
